Counter-ions that a name gives are not always drawn.
Legend:
[1] = molecular target: Activated CDK2/CyclinA (Homo sapiens, UniProt P24941); assay: Activated CDK2/CyclinA kinase inhibitory activity assay (IC50), Example 250A; type: biochemical
[2] = tested on: human colon carcinoma cell line HCT 116; assay: Anti-proliferative activity, Alamar Blue assay; type: cell-based; conditions: 72 hours compound incubation, read-out: IC50, inhibition of cell growth, HCT 116
How it was run: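 Cells were allowed to recover for 16 h, then exposed to compounds or combinations for 72 h. Viability was measured by resazurin reduction after 6 h with 10% (v/v) Alamar Blue, read at 535 nm ex/590 […] em. In the non-proliferating format, cells were held at confluence for 96 h before the 72 h treatment.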

[3] = molecular target: T1, GSK3-β (Homo sapiens, UniProt P49841); assay: Inhibitory activity against glycogen synthase kinase-3 (Protocol A or B); type: biochemical; conditions: either Protocol A or Protocol B; read-out: IC50 in the GSK3-B assays
T1 construct: purchased Upstate Discovery
Experimental: The activities of the compounds of the invention as inhibitors of GSK-3 were determined using either Protocol A or Protocol B below.
The reaction is allowed to proceed for 3 hours before being stopped with an excess of ortho-phosphoric acid (5 μl at 2%). The filtration procedure is as for Activated CDK2/CyclinA assay above.
GSK3β (human) is diluted to a 10× working stock in 50 mM Tris pH 7.5, 0.1 mM EGTA, 0.1 mM sodium vanadate, 0.1% β-mercaptoethanol, 1 mg/ml BSA.
(§1) (specific activity approx 500 cpm/pmol, concentration as required).

[4] = Solubility of the salt; type: physicochemical
[5] = molecular target: T2, CDK2/CyclinA (Homo sapiens, UniProt P24941); assay: Measurement of CDK2 kinase inhibitory activity (IC50), Example 248; type: biochemical
T2 construct: purchased Upstate Biotechnology
Experimental: Compounds of the invention were tested for kinase inhibitory activity using either the following protocol or the activated CDK2/cyclin A kinase protocol described in Example 250.
1.7 μl of active CDK2/CyclinA (Upstate Biotechnology, 10 U/μl) is diluted in assay buffer (25.0 μl of 10× strength assay buffer (200 mM MOPS pH 7.2, 250 mM (3-glycerophosphate, 50 mM EDTA, 150 mM MgCl2), 11.27 μl 10 mM ATP, 2.5 μl 1M DTT, 25 μl 100 mM sodium orthovanadate, 708.53 μl H2O), and 10 μl mixed with 10 μl of histone substrate mix (60 μl bovine histone H1 (Upstate Biotechnology, 5 mg/ml), 940 μl H2O, 35 μCi γ^33P-ATP) and added to 96 well plates along with 5 μl of various dilutions of the test compound in DMSO (up to 2.5%). The reaction is allowed to proceed for 5 hours before being stopped with an excess of ortho-phosphoric acid (30 μl at 2%).
(§2) γ^33P-ATP which remains unincorporated into the histone H1 is separated from phosphorylated histone H1 on a Millipore MAPH filter plate. The wells of the MAPH plate are wetted with 0.5% orthophosphoric acid, and then the results of the reaction are filtered with a Millipore vacuum filtration unit through the wells. Following filtration, the residue is washed twice with 200 μl of 0.5% orthophosphoric acid. Once the filters have dried, 25 μl of Microscint 20 scintillant is added, and then counted on a Packard Topcount for 30 seconds.

[6] = Stability and hygroscopicity of the salt; type: physicochemical
From the text: The term ‘stable’ or ‘stability’ as used herein includes chemical stability and solid state (physical) stability. The term ‘chemical stability’ means that the compound can be stored in an isolated form, or in the form of a formulation in which it is provided in admixture with for example, pharmaceutically acceptable carriers, diluents or adjuvants as described herein, under normal storage conditions, with little or no chemical degradation or decomposition. ‘Solid-state stability’ means the compound can be stored in an isolated solid form, or the form of a solid formulation in which it is provided in admixture with, for example, pharmaceutically acceptable carriers, diluents or adjuvants as described herein, under normal storage conditions, with little or no solid-state transformation (e.g. hydration, dehydration, solvatisation, desolvatisation, crystallisation, recrystallisation or solid-state phase transition).

[7] = molecular target: T3, CDK1/CyclinB (Homo sapiens, UniProt P06493); assay: CDK1/CyclinB assay; type: biochemical; conditions: Example 250B protocol or selectivity protocol
T3 construct: purchased Upstate Discovery
Experimental: as §1
The reaction is allowed to proceed for 2 to 4 hours before being stopped with an excess of ortho-phosphoric acid (5 μl at 2%).
as §2, with “20” for “25”

[8] = molecular target: CDK5/p35 (Homo sapiens, UniProt Q00535); assay: CDK selectivity assay, CDK5/p35; type: biochemical
From the text: as §1

[9] = tested on: PKA; conditions: data published in 2002; cited from earlier work
[10] = tested on: OVCAR-3 tumour cells; conditions: concentrations of 50 and 100 microM; cited from earlier work
[11] = tested on: PKC; conditions: data published in 2002; cited from earlier work
[12] = tested on: PKG; conditions: data published in 2002; cited from earlier work
[13] = tested on: symptomatic CLL patients; conditions: initial therapy; cited from earlier work
[14] = clinical studies; cited from earlier work

T1 sequence (P49841 whole entry): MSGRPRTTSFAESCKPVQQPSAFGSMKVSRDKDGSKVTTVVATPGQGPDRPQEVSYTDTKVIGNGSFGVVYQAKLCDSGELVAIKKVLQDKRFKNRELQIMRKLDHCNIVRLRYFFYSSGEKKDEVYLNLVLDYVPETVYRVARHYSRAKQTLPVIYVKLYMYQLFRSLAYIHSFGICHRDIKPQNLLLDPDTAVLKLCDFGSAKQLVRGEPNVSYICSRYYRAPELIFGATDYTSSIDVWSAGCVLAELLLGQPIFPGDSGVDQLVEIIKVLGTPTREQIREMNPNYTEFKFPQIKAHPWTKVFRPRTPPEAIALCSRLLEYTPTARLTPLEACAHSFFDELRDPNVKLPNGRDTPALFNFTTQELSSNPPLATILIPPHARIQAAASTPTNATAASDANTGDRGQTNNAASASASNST
T3 sequence (P06493 whole entry): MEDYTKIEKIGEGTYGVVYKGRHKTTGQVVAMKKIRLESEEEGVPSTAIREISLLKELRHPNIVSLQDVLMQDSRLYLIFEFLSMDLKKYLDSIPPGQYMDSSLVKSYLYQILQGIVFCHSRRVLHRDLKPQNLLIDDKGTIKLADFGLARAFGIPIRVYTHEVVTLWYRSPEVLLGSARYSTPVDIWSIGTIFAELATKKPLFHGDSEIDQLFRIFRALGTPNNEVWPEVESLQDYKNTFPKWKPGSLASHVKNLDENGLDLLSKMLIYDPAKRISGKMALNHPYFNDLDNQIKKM
T3 sequence (P14635 whole entry partner): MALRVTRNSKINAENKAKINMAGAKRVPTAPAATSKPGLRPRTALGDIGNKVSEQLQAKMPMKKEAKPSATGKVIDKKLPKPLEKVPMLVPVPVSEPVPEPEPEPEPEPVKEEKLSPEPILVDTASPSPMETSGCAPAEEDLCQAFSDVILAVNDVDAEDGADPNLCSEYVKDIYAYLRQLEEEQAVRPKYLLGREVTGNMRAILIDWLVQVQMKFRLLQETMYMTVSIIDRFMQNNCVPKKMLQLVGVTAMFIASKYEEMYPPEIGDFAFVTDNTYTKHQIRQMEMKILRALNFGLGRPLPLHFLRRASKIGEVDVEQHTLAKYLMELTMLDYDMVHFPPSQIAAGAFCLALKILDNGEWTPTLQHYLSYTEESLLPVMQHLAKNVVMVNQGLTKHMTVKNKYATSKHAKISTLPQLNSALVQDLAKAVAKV
Sequence of CDK5/p35 (Q00535 whole entry, species assumed): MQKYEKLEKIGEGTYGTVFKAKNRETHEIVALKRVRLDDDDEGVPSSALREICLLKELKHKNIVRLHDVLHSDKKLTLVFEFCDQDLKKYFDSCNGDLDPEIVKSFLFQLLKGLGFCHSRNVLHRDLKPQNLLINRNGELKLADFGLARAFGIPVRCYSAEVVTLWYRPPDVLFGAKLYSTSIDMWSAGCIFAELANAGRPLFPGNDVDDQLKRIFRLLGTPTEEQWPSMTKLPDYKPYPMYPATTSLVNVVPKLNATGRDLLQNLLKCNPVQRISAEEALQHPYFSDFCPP
Sequence of CDK5/p35 (Q15078 whole entry partner, species assumed): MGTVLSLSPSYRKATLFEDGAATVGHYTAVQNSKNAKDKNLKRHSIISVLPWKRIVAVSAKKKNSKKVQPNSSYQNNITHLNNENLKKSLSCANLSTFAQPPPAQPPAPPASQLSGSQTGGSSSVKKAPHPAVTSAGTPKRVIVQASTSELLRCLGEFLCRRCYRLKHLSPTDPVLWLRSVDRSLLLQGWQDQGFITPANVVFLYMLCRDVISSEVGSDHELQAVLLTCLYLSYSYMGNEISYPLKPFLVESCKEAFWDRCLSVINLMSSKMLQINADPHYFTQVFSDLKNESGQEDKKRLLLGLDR

Structure (SMILES)	IC50 [1] [µM]	IC50 [2] [µM]	IC50 [3] [µM]	also measured
CS(=O)(=O)N1CCC(NC(=O)c2n[nH]cc2NC(=O)c2c(F)cccc2F)CC1 [Example 131]	< 20	< 20	< 10	–
O=C(NC1CCNCC1)c1n[nH]cc1NC(=O)c1c(Cl)cccc1Cl [methanesulphonic acid salt, 4-(2,6-dichloro-benzoylamino)-1H-pyrazole-3-carboxylic acid piperidin-4-ylamide]	–	–	–	solubility ([4]; pH 4.6, aqueous buffer, acetic acid/sodium acetate buffer, solution pH approximately 4.6): ~35 mg/mL
CN1CCN(c2ccc(CNC(=O)c3n[nH]cc3-c3ccccc3)cc2)CC1 [Example 230, 4-Phenyl-1H-pyrazole-3-carboxylic acid 4-(4-methyl-piperazin-1-yl)-benzylamide]	–	–	–	IC50 [5]: < 750 µM
O=C(NCc1c(Cl)cccc1Cl)c1n[nH]cc1NC(=O)c1c(F)cccc1F [Example 93]	–	< 20	–	IC50 [5]: < 750 µM
O=C(Nc1c[nH]nc1C(=O)NC1CCNCC1)c1cc(F)cc(F)c1 [Example 144]	< 20	–	< 10	–
CC(C)(C)C1CCC(NC(=O)c2n[nH]cc2NC(=O)c2ccc(CN3CCCC3)o2)CC1 (stereo not shown) [Example 134]	< 20	< 20	< 10	–
CS(=O)(=O)O.O=C(NC1CCNCC1)c1n[nH]cc1NC(=O)c1c(Cl)cccc1Cl [methanesulphonate salt, 4-(2,6-dichlorobenzoylamino)-1H-pyrazole-3-carboxylic acid piperidin-4-ylamide methanesulphonate]	–	–	–	Hygroscopicity [6]: non-hygroscopicity; Water solubility [4]: excellent
CC(C)(C)C1CCC(NC(=O)c2n[nH]cc2NC(=O)c2ccc(CN3CCOCC3)o2)CC1 (stereo not shown) [Example 135]	< 20	< 100	< 10	–
CN1CCN(c2ccc(CNC(=O)c3n[nH]cc3-c3ccc(Cl)cc3Cl)cc2)CC1 [Example 226, 4-(2,4-Dichloro-phenyl)-1H-pyrazole-3-carboxylic acid 4-(4-methyl-piperazin-1-yl)-benzylamide]	–	–	–	IC50 [5]: < 750 µM
CN1CCC(NC(=O)c2n[nH]cc2NC(=O)c2cccc3c2OCCO3)CC1 [Example 188]	< 20	< 20	–	IC50 [7]: < 100 µM
O=C(Nc1ccc(F)cc1)c1n[nH]cc1NC(=O)c1c(F)cccc1F [Example 41, 4-(2,6-Difluoro-benzoylamino)-1H-pyrazole-3-carboxylic acid (4-fluoro-phenyl)-amide]	–	< 20	–	IC50 [8]: < 20 µM
Cc1ccc(C)n1-c1c[nH]nc1C(=O)Nc1ccc(F)cc1 [Example 235, 4-(2,5-Dimethyl-pyrrol-1-yl)-1H-pyrazole-3-carboxylic acid(4-fluoro-phenyl)-amide]	–	–	–	IC50 [5]: < 750 µM
O=C(NC1CCNCC1)c1n[nH]cc1NC(=O)c1c(F)cccc1Cl [Example 149]	< 20	< 20	< 10	–
CC(C)N1CCC(NC(=O)c2n[nH]cc2NC(=O)c2c(F)cccc2F)CC1 [Example 106]	< 20	< 20	< 10	–
O=C(Nc1c[nH]nc1C(=O)NC1CCNCC1)c1ccc(OC(F)F)cc1 [Example 145]	< 20	–	< 10	–
CC1(C)CC(NC(=O)c2n[nH]cc2NC(=O)c2c(F)cccc2F)CC(C)(C)N1 [Example 88]	–	–	–	IC50 [5]: < 750 µM
O=S(=O)(NCCNCC=C(c1ccccc1)c1ccccc1)c1cccc2cnccc12 [NL-71-101]	–	–	–	IC50 [9]: 9 µM; Apoptosis in OVCAR-3 tumour cells [10]: induced apoptosis; IC50 [11]: 104 µM; IC50 [12]: 36 µM

Structure (SMILES)	IC50 [1] [µM]	IC50 [2] [µM]	IC50 [3] [µM]	also measured
NC(=O)c1n[nH]cc1-c1ccccc1 [Example 228, 4-Phenyl-1H-pyrazole-3-carboxylic acid amide]	–	–	–	IC50 [5]: < 750 µM
CC(=O)Nc1c[nH]nc1C(=O)Nc1ccc(F)cc1 [Example 2, 4-Acetylamino-1H-pyrazole-3-carboxylic acid (4-fluoro-phenyl)-amide]	–	< 100	< 10	–
O=C(Nc1c[nH]nc1C(=O)NC1CCNCC1)c1cc(-c2ccccc2)cs1 [Example 147]	< 20	< 20	< 10	–
COc1cccc(F)c1C(=O)Nc1c[nH]nc1C(=O)NC1CCC(C(C)(C)C)CC1 (stereo not shown) [Example 123]	< 20	< 20	< 10	–
Nc1nc(F)nc2c1ncn2[C@@H]1O[C@H](CO)[C@@H](O)[C@@H]1O [fludarabine]	–	–	–	Duration of progression-free survival [13]: 33 months; Rate of complete responses [13]: 27%
COc1cccc(OC)c1C(=O)Nc1c[nH]nc1C(=O)NC1CCN(C)CC1 [Example 206]	–	< 100	–	IC50 [7]: < 100 µM
O=C(Nc1c[nH]nc1C(=O)NC1CCNCC1)c1ccc(N2CCOCC2)cc1Cl [Example 151]	–	< 20	< 10	–
CCCCCCCCCCCCCCCCCCOP(=O)([O-])OC1CC[N+](C)(C)CC1 [KRX-0401, Perifosine]	–	–	–	Half-life [14]: ~100 h
O=C(NC1CCNCC1)c1n[nH]cc1NC(=O)c1c(F)cccc1F [Example 76]	–	< 20	< 10	–
COc1cccc(F)c1C(=O)Nc1c[nH]nc1C(=O)NC1CCNCC1 [Example 142]	< 20	< 20	< 10	–
N[C@H]1CC[C@H](NC(=O)c2n[nH]cc2NC(=O)c2c(F)cccc2F)CC1 [Example 102]	< 20	< 20	< 10	–
CC(C)(C)C1CCC(NC(=O)c2c[nH]nc2NC(=O)c2c(F)cccc2F)CC1 (stereo not shown) [Example 77]	–	< 20	< 10	–
O=C(NC1CCCCC1)c1n[nH]cc1NC(=O)c1c(F)cccc1F [Example 65]	–	< 20	< 10	–
O=C(Nc1c[nH]nc1C(=O)NC1CCNCC1)c1ccc(Cl)cc1 [Example 143]	< 20	< 20	< 10	–
COc1cccc(F)c1C(=O)Nc1c[nH]nc1C(=O)NC1CCN(C(=O)OC(C)(C)C)CC1 [Example 119]	< 20	< 20	< 10	–
Cc1sccc1C(=O)Nc1c[nH]nc1C(=O)Nc1ccc(F)cc1 [Example 48, 4-[(2-Methyl-thiophene-3-carbonyl)-amino]-1H-pyrazole-3-carboxylic acid (4-fluoro-phenyl)-amide]	–	< 20	< 10	–
